Assay results as given in US20200288711A1, “Pyrimidin-4-Carbamate or Urea Derivatives As Herbicides” (Syngenta Participations AG, priority 2017, published 2020).

What was measured:
Format in all cases: in vivo
[1] = test system: Alopecurus myosuroides (ALOMY); experiment: B1 pre-emergence herbicidal activity; design: key: 5=total damage to plant; 0=no damage to plant; conditions: Test 1b, rate 1000 g/ha, evaluated after 13 days, score 0-5 (5=total damage, 0=no damage)
Description: (§1) Seeds of a variety of test species were sown in standard soil in pots: Triticum aestivium (TRZAW), Avena fatua (AVEFA), Alopecurus myosuroides (ALOMY), Echinochloa crus-galli (ECHCG), Lolium perenne (LOLPE), Zea mays (ZEAMX), Abutilon theophrasti (ABUTH), Amaranthus retroflexus (AMARE) and Setaria faberi (SETFA). After cultivation for one day (pre-emergence) under controlled conditions in a glasshouse (at 24/16° C., day/night; 14 hours light; 65% humidity), the plants were sprayed with an aqueous spray solution derived from the formulation of the technical active ingredient in acetone/water (50:50) solution containing 0.5% Tween 20 (polyoxyethelyene sorbitan monolaurate, CAS RN 9005-64-5). The test plants were then grown in a glasshouse under controlled conditions (at 24/16° C., day/night; 14 hours light; 65% humidity) and watered twice daily. After 13 days, the test was evaluated (5=total damage to plant; 0=no damage to plant).

[2] = test system: Avena fatua (AVEFA); experiment: B1 pre-emergence herbicidal activity; design: key: 5=total damage to plant; 0=no damage to plant; conditions: Test 1b, rate 1000 g/ha, evaluated after 13 days, score 0-5 (5=total damage, 0=no damage)
Description: as §1

[3] = test system: Lolium perenne (LOLPE); experiment: B1 pre-emergence herbicidal activity; design: key: 5=total damage to plant; 0=no damage to plant; conditions: Test 1b, rate 1000 g/ha, evaluated after 13 days, score 0-5 (5=total damage, 0=no damage)
Description: as §1

[4] = test system: Triticum aestivium (TRZAW); experiment: B1 pre-emergence herbicidal activity; design: key: 5=total damage to plant; 0=no damage to plant; conditions: Test 1b, rate 1000 g/ha, evaluated after 13 days, score 0-5 (5=total damage, 0=no damage)
Description: as §1

[5] = test system: Setaria faberi (SETFA); experiment: B1 pre-emergence herbicidal activity; design: key to Pre-emergence herbicidal activity, SETFA: 5=total damage to plant; 0=no damage to plant; conditions: Test 1b, rate 1000 g/ha, evaluated after 13 days, score 0-5 (5=total damage, 0=no damage)
Description: as §1

[6] = test system: Echinochloa crus-galli (ECHCG); experiment: B1 pre-emergence herbicidal activity; design: key to Pre-emergence herbicidal activity, ECHCG: 5=total damage to plant; 0=no damage to plant; conditions: Test 1b, rate 1000 g/ha, evaluated after 13 days, score 0-5 (5=total damage, 0=no damage)
Description: as §1

[7] = test system: Alopecurus myosuroides (ALOMY); experiment: B2 post-emergence herbicidal activity; design: key: 5=total damage to plant; 0=no damage to plant; conditions: Test 2b, rate 1000 g/ha, evaluated after 13 days, score 0-5 (5=total damage, 0=no damage)
Description: (§2) Seeds of a variety of test species were sown in standard soil in pots: Triticum aestivium (TRZAW), Avena fatua (AVEFA), Alopecurus myosuroides (ALOMY), Echinochloa crus-galli (ECHCG), Lolium perenne (LOLPE), Zea mays (ZEAMX), Abutilon theophrasti (ABUTH), Amaranthus retroflexus (AMARE) and Setaria faberi (SETFA). After 8 days cultivation (post-emergence) under controlled conditions in a glasshouse (at 24/16° C., day/night; 14 hours light; 65% humidity), the plants were sprayed with an aqueous spray solution derived from the formulation of the technical active ingredient in acetone/water (50:50) solution containing 0.5% Tween 20 (polyoxyethelyene sorbitan monolaurate, CAS RN 9005-64-5). The test plants were then grown in a glasshouse under controlled conditions (at 24/16° C., day/night; 14 hours light; 65% humidity) and watered twice daily. After 13 days, the test was evaluated (5=total damage to plant; 0=no damage to plant).

[8] = test system: Avena fatua (AVEFA); experiment: B2 post-emergence herbicidal activity; design: key: 5=total damage to plant; 0=no damage to plant; conditions: Test 2b, rate 1000 g/ha, evaluated after 13 days, score 0-5 (5=total damage, 0=no damage)
Description: as §2

[9] = test system: Echinochloa crus-galli (ECHCG); experiment: B2 post-emergence herbicidal activity; design: key: 5=total damage to plant; 0=no damage to plant; conditions: Test 2b, rate 1000 g/ha, evaluated after 13 days, score 0-5 (5=total damage, 0=no damage)
Description: as §2

[10] = test system: Lolium perenne (LOLPE); experiment: B2 post-emergence herbicidal activity; design: key: 5=total damage to plant; 0=no damage to plant; conditions: Test 2b, rate 1000 g/ha, evaluated after 13 days, score 0-5 (5=total damage, 0=no damage)
Description: as §2

[11] = test system: Setaria faberi (SETFA); experiment: B2 post-emergence herbicidal activity; design: key: 5=total damage to plant; 0=no damage to plant; conditions: Test 2b, rate 1000 g/ha, evaluated after 13 days, score 0-5 (5=total damage, 0=no damage)
Description: as §2

[12] = test system: Triticum aestivium (TRZAW); experiment: B2 post-emergence herbicidal activity; design: key: 5=total damage to plant; 0=no damage to plant; conditions: Test 2b, rate 1000 g/ha, evaluated after 13 days, score 0-5 (5=total damage, 0=no damage)
Description: as §2

| Compound | Pre-emergence herbicidal activity, ALOMY [1] | Pre-emergence herbicidal activity, AVEFA [2] | Pre-emergence herbicidal activity, LOLPE [3] | Pre-emergence herbicidal activity, TRAZW [4] | Pre-emergence herbicidal activity, SETFA [5] | Pre-emergence herbicidal activity, ECHCG [6] | Control of weed species after post-emergence application, ALOMY [7] | Control of weed species after post-emergence application, AVEFA [8] | Control of weed species after post-emergence application, ECHCG [9] | Control of weed species after post-emergence application, LOLPE [10] | Control of weed species after post-emergence application, SETFA [11] | Control of weed species after post-emergence application, TRAZW [12] |
| --- | --- | --- | --- | --- | --- | --- | --- | --- | --- | --- | --- | --- |
| Cc1nc(-c2cncnc2)ncc1N(C)C(=O)OC(C)(C)C [Compound E3] | 1 | 4 | 1 | 0 | 4 | 4 | 2 | 4 | 4 | 3 | 5 | 1 |
| CC(C)(C)OC(=O)Nc1cnc(-c2cncc(F)c2)nc1C(F)(F)F [Compound E4, tert-butyl N-[2-(5-fluoro-3-pyridyl)-4-(trifluoromethyl)pyrimidin-5-yl]carbamate] | 0 | 4 | 1 | 0 | 4 | 4 | 1 | 4 | 4 | 3 | 5 | 1 |
| CN(C(=O)OC(C)(C)C)c1cnc(-c2cncc(F)c2)nc1C(F)(F)F [Compound E5] | 0 | 3 | 1 | 0 | 5 | 3 | 0 | 4 | 4 | 2 | 5 | 0 |
| C=CCN(C(=O)OC(C)(C)C)c1cnc(-c2cncnc2)nc1C [Compound E6] | 0 | 1 | 1 | 0 | 5 | 3 | 1 | 2 | 3 | 1 | 5 | 1 |
| Cc1nc(-c2cncnc2)ncc1NC(=O)OC(C)(C)C [Compound E7, tert-butyl N-(4-methyl-2-pyrimidin-5-yl-pyrimidin-5-yl)carbamate] | 0 | 2 | 1 | 0 | 4 | 5 | 0 | 3 | 4 | 2 | 4 | 0 |
| O=C(Nc1cnc(-c2cncc(F)c2)nc1C(F)(F)F)N1CCOCC1 [Compound E8, N-[2-(5-fluoro-3-pyridyl)-4-(trifluoromethyl)pyrimidin-5-yl]morpholine-4-carboxamide] | 0 | 2 | 1 | 0 | 4 | 3 | 1 | 3 | 4 | 3 | 5 | 1 |
| CN1CCN(c2cnc(-c3cncc(F)c3)nc2C(F)(F)F)C1=O [Compound E9, 1-[2-(5-fluoro-3-pyridyl)-4-(trifluoromethyl)pyrimidin-5-yl]-3-methyl-imidazolidin-2-one] | 0 | 1 | 1 | 0 | 2 | 1 | 0 | 2 | 4 | 1 | 3 | 1 |
| CCCOC(=O)Nc1cnc(-c2cncc(F)c2)nc1C(F)(F)F [Compound E10] | 0 | 2 | 1 | 0 | – | 4 | 0 | 3 | 4 | 1 | 5 | 1 |
| CC(C)(C)OC(=O)Nc1cnc(-c2cncnc2)nc1C(F)(F)F [Compound E11] | 1 | 2 | 1 | 0 | 4 | 3 | 0 | 3 | 4 | 2 | 4 | 1 |
| CC(C)(C)OC(=O)Nc1cnc(-c2cncc(C#N)c2)nc1C(F)(F)F [Compound E12, tert-butyl N-[2-(5-cyano-3-pyridyl)-4-(trifluoromethyl)pyrimidin-5-yl]carbamate] | 0 | 0 | 0 | 0 | 4 | 3 | 0 | 2 | 2 | 1 | 5 | 0 |
